Results published in patent publication US8158794B2, “Hydroxyalkyl substituted imidazoquinoline compounds and methods” (3M Innovative Properties Company, priority 2005, dated 2012).
Counter-ions that a name gives are not always drawn.

Key:
[1] = system: interferon (α) (IFN-α); assay: Cytokine induction in human cells: IFN-α secreted by PBMC (ELISA); type: cell-based; set-up: key to Maximal Response (pg/mL) IFN: *: Below experimental background level; conditions: median if more than one experiment; for minimal effective concentration: 18 to 24 hours, lowest tested concentration inducing response over 20 pg/mL, read-out: Minimum Effective Concentration (μM) IFN
From the text: (§1) An in vitro human blood cell system is used to assess cytokine induction. Activity is based on the measurement of interferon (α) and tumor necrosis factor (α) (IFN-α and TNF-α, respectively) secreted into culture media as described by Testerman et. al. in “Cytokine Induction by the Immunomodulators Imiquimod and S-27609”, Journal of Leukocyte Biology, 58, 365-372 (September, 1995).
(§2) Whole blood from healthy human donors is collected by venipuncture into vacutainer tubes or syringes containing EDTA. Peripheral blood mononuclear cells (PBMC) are separated from whole blood by density gradient centrifugation using HISTOPAQUE-1077 (Sigma, St. Louis, Mo.) or Ficoll-Paque Plus (Amersham Biosciences Piscataway, N.J.). Blood is diluted 1:1 with Dulbecco's Phosphate Buffered Saline (DPBS) or Hank's Balanced Salts Solution (HBSS). Alternately, whole blood is placed in Accuspin (Sigma) or LeucoSep (Greiner Bio-One, Inc., Longwood, Fla.) centrifuge frit tubes containing density gradient medium. The PBMC layer is collected and washed twice with DPBS or HBSS and re-suspended at 4×10^6 cells/mL in RPMI complete. The PBMC suspension is added to 96 well flat bottom sterile tissue culture plates containing an equal volume of RPMI complete media containing test compound.
(§3) The compounds are solubilized in dimethyl sulfoxide (DMSO). The DMSO concentration should not exceed a final concentration of 1% for addition to the culture wells. The compounds are generally tested at concentrations ranging from 30-0.014 μM. Controls include cell samples with media only, cell samples with DMSO only (no compound), and cell samples with reference compound.
(§4) The solution of test compound is added at 60 μM to the first well containing RPMI complete and serial 3 fold dilutions are made in the wells. The PBMC suspension is then added to the wells in an equal volume, bringing the test compound concentrations to the desired range (usually 30-0.014 μM). The final concentration of PBMC suspension is 2×10^6 cells/mL. The plates are covered with sterile plastic lids, mixed gently and then incubated for 18 to 24 hours at 37° C. in a 5% carbon dioxide atmosphere.
(§5) Following incubation the plates are centrifuged for 10 minutes at 1000 rpm (approximately 200×g) at 4° C. The cell-free culture supernatant is removed and transferred to sterile polypropylene tubes. Samples are maintained at −30 to −70° C. until analysis. The samples are analyzed for IFN-α by ELISA and for TNF-α by IGEN/BioVeris Assay.
IFN-α concentration is determined with a human multi-subtype colorimetric sandwich ELISA (Catalog Number 41105) from PBL Biomedical Laboratories, Piscataway, N.J. Results are expressed in pg/mL.
(§6) In total, the data output of the assay consists of concentration values of TNF-α and IFN-α(y-axis) as a function of compound concentration (x-axis).
Analysis of the data has two steps. First, the greater of the mean DMSO (DMSO control wells) or the experimental background (usually 20 pg/mL for IFN-α and 40 pg/mL for TNF-α) is subtracted from each reading. If any negative values result from background subtraction, the reading is reported as “*”, and is noted as not reliably detectable. In subsequent calculations and statistics, “*”, is treated as a zero. Second, all background subtracted values are multiplied by a single adjustment ratio to decrease experiment to experiment variability. The adjustment ratio is the area of the reference compound in the new experiment divided by the expected area of the reference compound based on the past 61 experiments (unadjusted readings). […] The reference compound used is 2-[4-amino-2-ethoxymethyl-6,7,8,9-tetrahydro-α,α-dimethyl-1H-imidazo[4,5-c]quinolin-1-yl]ethanol hydrate (U.S. Pat. No. 5,352,784; Example 91) and the expected area is the sum of the median dose values from the past 61 experiments.
The minimum effective concentration is calculated based on the background-subtracted, reference-adjusted results for a given experiment and compound. […]

[2] = system: tumor necrosis factor (α) (TNF-α); assay: Cytokine induction in human cells: TNF-α secreted by PBMC (ORIGEN M-Series immunoassay); type: cell-based; set-up: key to Maximal Response (pg/mL) TNF: *: Below experimental background level; conditions: median if more than one experiment; for minimal effective concentration: 18 to 24 hours, lowest tested concentration inducing response over 40 pg/mL, read-out: Minimum Effective Concentration (μM) TNF; for Maximal Response (pg/mL) TNF: tested 30-0.014 μM, background-subtracted, reference-adjusted
From the text: as §1, §2, §3, §4, §5
The TNF-α concentration is determined by ORIGEN M-Series Immunoassay and read on an IGEN M-8 analyzer from BioVeris Corporation, formerly known as IGEN International, Gaithersburg, Md. The immunoassay uses a human TNF-α capture and detection antibody pair (Catalog Numbers AHC3419 and AHC3712) from Biosource International, Camarillo, Calif. Results are expressed in pg/mL.
as §6
Analysis of the data has two steps. First, the greater of the mean DMSO (DMSO control wells) or the experimental background (usually 20 pg/mL for IFN-α and 40 pg/mL for TNF-α) is subtracted from each reading. If any negative values result from background subtraction, the reading is reported as “*”, and is noted as not reliably detectable. In subsequent calculations and statistics, “*”, is treated as a zero. Second, all background subtracted values are multiplied by a single adjustment ratio to decrease experiment to experiment variability. The adjustment ratio is the area of the reference compound in the new experiment divided by the expected area of the reference compound based on the past 61 experiments (unadjusted readings). […]

## CS(=O)(=O)N1CCC(Cn2c(CO)nc3c(N)nc4cc(-c5cncc(CO)c5)ccc4c32)CC1 (as salt: HBr) (hydrate or solvate) [Example 44]
other
  melting point: > 300 °C

## CC(C)C(=O)N1CCC(Cn2c(CO)nc3c(N)nc4cc(-c5cncc(CO)c5)ccc4c32)CC1 (as salt: HBr) [Example 45]
other
  melting point: > 300 °C

## CC(C)NC(=O)N1CCC(Cn2c(CO)nc3c(N)nc4cc(-c5cncc(CO)c5)ccc4c32)CC1 (as salt: HBr) [Example 46]
other
  melting point: > 300 °C

## Nc1nc2cc(-c3cccc(C(=O)N4CCOCC4)c3)ccc2c2c1nc(CO)n2CC1CCCCC1 (as salt: HCl) (hydrate or solvate) [Example 50]
other
  melting point: 260 to 264 °C

## CC(C)(O)Cn1c(CO)nc2c(N)nc3cc(-c4cncc(CO)c4)ccc3c21 (hydrate or solvate) [Example 33]
other
  melting point: 180 to 182 °C

## CC(C)C(=O)N1CCC(Cn2c(CO)nc3c(N)nc4cc(-c5cccnc5)ccc4c32)CC1 (hydrate or solvate) [Example 35]
other
  melting point: 154 to 157 °C

## CC(C)(O)Cn1c(CO)nc2c(N)nc3cc(-c4ccc(F)nc4)ccc3c21 (hydrate or solvate) [Example 37]
other
  melting point: 111 to 114 °C

## CS(=O)(=O)NCCCCn1c(CO)nc2c(N)nc3cc(-c4cccnc4)ccc3c21 (hydrate or solvate) [Example 38]
other
  melting point: 188 to 190 °C

## CCCNC(=O)NCCCCn1c(CO)nc2c(N)nc3cc(-c4cccnc4)ccc3c21 (hydrate or solvate) [Example 39]
other
  melting point: 206 to 209 °C

## CCCC(=O)NCCCCn1c(CO)nc2c(N)nc3cc(-c4cccnc4)ccc3c21 (hydrate or solvate) [Example 40]
other
  melting point: 211 to 212 °C

## Nc1nc2cc(-c3cccnc3)ccc2c2c1nc(CO)n2CCCCNC(=O)NC1CCCC1 (hydrate or solvate) [Example 41]
other
  melting point: 225 to 227 °C

## CC(C)C(=O)NCCCCn1c(CO)nc2c(N)nc3cc(-c4cccnc4)ccc3c21 (hydrate or solvate) [Example 43]
other
  melting point: 225 to 227 °C

## Cc1cccc(-c2ccc3c(c2)nc(N)c2nc(CCO)n(CCCN4CCCC4=O)c23)c1 (hydrate or solvate) [Example 47]
other
  melting point: 218 to 221 °C

## Nc1nc2cc(-c3ccccc3O)ccc2c2c1nc(CCO)n2CCCN1CCCC1=O (hydrate or solvate) [Example 48]
other
  melting point: > 250 °C

## Nc1nc2cc(-c3cncc(CO)c3)ccc2c2c1nc(CO)n2CC1CCCCC1 (hydrate or solvate) [Example 49]
other
  melting point: 166 to 170 °C

## CC(C)(O)Cn1c(CO)nc2c(N)nc3cc(-c4cccnc4)ccc3c21 (hydrate or solvate) [Example 51]
other
  melting point: 141 to 143 °C

## Nc1nc2cc(-c3cccnc3)ccc2c2c1nc(CO)n2CC1CCOCC1 [Example 32, [4-Amino-7-pyridin-3-yl-1-(tetrahydro-2H-pyran-4-ylmethyl)-1H-imidazo[4,5-c]quinolin-2-yl]methanol]
other
  melting point: 260 to 262 °C

## CS(=O)(=O)N1CCC(Cn2c(CO)nc3c(N)nc4cc(-c5cccnc5)ccc4c32)CC1 [Example 34]
other
  melting point: 196 to 198 °C

## CC(C)NC(=O)N1CCC(Cn2c(CO)nc3c(N)nc4cc(-c5cccnc5)ccc4c32)CC1 [Example 36]
other
  melting point: 182 to 184 °C

## Nc1nc2cc(-c3cccnc3)ccc2c2c1nc(CO)n2CCCCNC(=O)C1CCCC1 [Example 42]
[1]
  minimal effective concentration: 0.12 µM
[2]
  minimal effective concentration: 3.33 µM
other
  melting point: 241 to 242 °C

## CC(C)C(=O)NCCCCn1c(CO)nc2c(N)nc3cc(-c4cccnc4)ccc3c21 [Example 43]
[1]
  minimal effective concentration: 0.37 µM
[2]
  minimal effective concentration: 10 µM

## CC(C)C(=O)N1CCC(Cn2c(CO)nc3c(N)nc4cc(-c5cncc(CO)c5)ccc4c32)CC1 [Example 45]
[1]
  minimal effective concentration: > 30 µM
[1]; tested 30-0.014 μM, background-subtracted, reference-adjusted
  Maximal Response (pg/mL) IFN: *
[2]
  minimal effective concentration: > 30 µM
  Maximal Response (pg/mL) TNF: *

## Nc1nc2cc(-c3cncc(CO)c3)ccc2c2c1nc(CO)n2CC1CCCCC1 [Example 49]
[1]
  minimal effective concentration: 3.33 µM
[2]
  minimal effective concentration: > 30 µM
  Maximal Response (pg/mL) TNF: *

## Nc1nc2cc(-c3cccc(C(=O)N4CCOCC4)c3)ccc2c2c1nc(CO)n2CC1CCCCC1 [Example 50]
[1]
  minimal effective concentration: 1.11 µM
[2]
  minimal effective concentration: > 30 µM
  Maximal Response (pg/mL) TNF: *

## Nc1nc2cc(-c3cccc(C(=O)N4CCCC4)c3)ccc2c2c1nc(CO)n2CC1CCOCC1 [Example 139, [4-Amino-7-[3-(pyrrolidin-1-ylcarbonyl)phenyl]-1-(tetrahydro-2H-pyran-4-ylmethyl)-1H-imidazo[4,5-c]quinolin-2-yl]methanol]
other
  melting point: 281 to 284 °C
